Data taken from patent US9504674B2, “TrkB agonists and methods of use” (EMORY UNIVERSITY, priority 2010, dated 2016).

Legend:
MAPK = MAPK phosphorylation in primary neurons (immunoblotting); assay type: cell-based, rat; details: 500 nM, time course
Method: Rat primary neurons were treated with 500 nM. 4′-DMA-7,8-DHF from various time points. The neuronal lysates were analyzed with various antibodies. 4′-DMA-7,8-DHF rapidly activated TrkB and its downstream signaling cascades (left panels). […] One mg/kg of 4′-DMA-7,8-DHF and 7,8-DHF were orally administrated into C57 BL/6J mice and TrkB phosphorylation and its downstream signaling cascades including Akt and MAPK in mouse brain were analyzed by immunoblotting at various time points. TrkB activation by 4′-DMA-7,8-DHF peaked at 4 h, whereas the maximal TrkB activation by 7,8-DHF in mouse brain occurred at 1-2 h (middle panels).
To compare the TrkB activation by these synthetic compounds, primary cortical cultures were prepared. Cortical neurons were treated with 500 nM of various compounds for 20 min and cell lysates were collected. […] Replacing the H-bond acceptor O atom with hydrogen bond donor NH abolishes its stimulatory effect. […] On the other hand, 7,8-DHF provoked TrkB activation with the minimal concentration of 100 nM (FIG. 2B, right panels). To further study 4′-DMA-7,8-DHF's kinetics on TrkB activation, primary neurons were treated for various time points. 4′-DMA-7,8-DHF swiftly activated TrkB as soon as 5 minutes following treatment. […] TrkB activation was monitored at different time points.

Akt and MAPK = assay: Downstream p-Akt / p-MAPK signaling in mouse brain after oral administration (immunoblotting, p-Akt ELISA); assay type: in vivo; details: 1 mg/kg oral; for Akt and MAPK activation (TrkB signaling) in mouse brain at 2 h: C57BL/6J mice, p-Akt 473 and p-MAPK immunoblotting
Method: The data were from two sets of replicated experiments.
1 mg/kg of various compounds were orally administrated into C57 BL/6J mice and TrkB phosphorylation and its downstream signaling cascades including Akt and MAPK in mouse brain were analyzed by immunoblotting at 2 h.
The brain lysates were prepared and analyzed with p-Akt ELISA kit.
The compounds were orally injected (1 mg/kg) into C57BL/6J mice. The TrkB and its downstream signaling cascades activation at 2 h were examined after drug administration with mouse brain tissues. […] The downstream p-Akt and p-MAPK tightly coupled to p-TrkB signals.

[1] = tested on: dentate gyrus progenitor proliferation; assay: Neurogenesis assay (BrdU positive cells in dentate gyrus); assay type: in vivo, mouse; details: 5 mg/kg oral for 21 days, BrdU 50 mg/kg i.p., 2 h
Method: 4′-Dimethylamino-7,8-dihydroxyflavone and 7,8-dihydroxyflavone promote neurogenesis. Male C57BL/6J mice were orally administrated with 5 mg/kg 4′-DMA-7,8-DHF and 7,8-DHF and vehicle solvent for 21 days and followed by 50 mg/kg BrdU ip injection. In 2 h, the mice were perfused and brain sections were immunostained with anti-BrdU and DAPI. The positive cells in dentate gyms were highlighted by arrow (left panels). Quantitative analysis of the BrdU positive cells in dentate gyms (right panel).
Adult male mice (2-3 months old) were orally injected with Saline, 4′-DMA-7,8-DHF and 7,8-DHF (5 mg/kg) for 21 days. Then Brdu (50 mg/kg) was i.p. injected. In 2 h, the mice were perfused with 4% paraformaldehyde. Immunohistochemical staining was performed on formalin-fixed paraffin-embedded sections. Sections from brain were cut, deparaffinized in xylene and rehydrated in graded alcohols. The slides were boiled in 10 mM citric acid (pH 6.0) for 10 min followed by an incubation in 2 N HCl for 10 min in room temperature. The slides were then permeabilized and blocked with 1% BSA in 0.2% PBST. The incorporated BrdU were stained using anti-BrdU-FITC (Abcam, USA) at 4° C. for 16 hr. […] The slides were finally mounted with AquaMount (Lerner Laboratories, USA) containing 0.01% 1,4-diazobicyclo(2,2,2)octane and examined under a fluorescence microscope. […]

SMILES	time of peak MAPK phosphorylation (MAPK)	Akt and MAPK activation (TrkB signaling) in mouse brain at 2 h (Akt and MAPK)	neurogenesis (BrdU) compared to vehicle control [1]	Akt activation in mouse brain (p-Akt ELISA), compared with compound i (Akt and MAPK; brain lysates, time course)
CN(C)c1ccc(-c2cc(=O)c3ccc(O)c(O)c3o2)cc1 [4′-DMA-7,8-DHF, 4′-dimethylamino-7,8-dihydroxyflavone]	10 min	potently activated TrkB signaling in mouse brain	significantly increased neurogenesis	–
O=c1cc(-c2ccccc2)oc2c(O)c(O)ccc12 [7,8-DHF, 7,8-dihydroxyflavone, reference compound]	–	–	significantly increased neurogenesis	–
CN(C)c1ccc(-c2cc(=O)c3ccc4nc[nH]c4c3o2)cc1 [compound m, 8-(4-(dimethylamino)phenyl)chromeno[7,8-d]imidazol-6(1H)-one]	–	potently activated TrkB signaling in mouse brain	–	more robust and sustained Akt activation than compound i
